Experimental data taken from the supplement of paper PMC10307832.

Key:
Assay in all cases: relative viability (nuclei count vs DMSO), 5 days (fraction); higher = more cells survive
[1] = compound: CN[C@@H]1C[C@H]2O[C@@](C)([C@@H]1OC)n1c3ccccc3c3c4c(c5c6ccccc6n2c5c31)C(=O)NC4 [Staurosporine] + COc1cccc2cc(-c3nc([C@H]4CC[C@H](C(=O)O)CC4)n4ncnc(N)c34)[nH]c12 [OSI-027] (partner 0.5 µM)
Procedure, shortened: (§1)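 For relative viability, nuclei counts in treated wells were divided by those in vehicle wells. Lung cancer cell lines had been pin-tool dosed in 1536-well plates the day after seeding and cultured for 5 days, then fixed and stained in one step (final 0.05% Triton X-100, 1% formaldehyde, 1 ug/ml Hoechst) and imaged at 4×. Doses were one drug alone or a fixed anchor-drug dose plus five library-drug doses (not always all listed) in √10 steps, and values are duplicate-plate medians.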

[2] = compound: O=c1[nH]cc(F)c(=O)[nH]1 [5-Fluorouracil] + CS(=O)(=O)N1CCN(Cc2cc3nc(-c4cccc5[nH]ncc45)nc(N4CCOCC4)c3s2)CC1 [Pictilisib] (partner 1 µM)
Procedure, shortened: as §1

[3] = compound: O=c1[nH]cc(F)c(=O)[nH]1 [5-Fluorouracil] + CC(=O)c1c(C)c2cnc(Nc3ccc(N4CCNCC4)cn3)nc2n(C2CCCC2)c1=O [Palbociclib] (partner 0.5 µM)
Procedure, shortened: as §1

[4] = compound: O=c1[nH]cc(F)c(=O)[nH]1 [5-Fluorouracil] + COc1cc2c(Oc3ccc(NC(=O)C4(C(=O)Nc5ccc(F)cc5)CC4)cc3F)ccnc2cc1OCCCN1CCOCC1 [Foretinib] (partner 0.25 µM)
Procedure, shortened: as §1

Cell Line	relative viability ([1]; first compound 0.005 µM)	relative viability ([1]; first compound 0.01581 µM)	relative viability ([1]; first compound 0.05 µM)	relative viability ([1]; first compound 0.1581 µM)	relative viability ([2]; first compound 0.02 µM)	relative viability ([2]; first compound 0.2 µM)	relative viability ([2]; first compound 0.6325 µM)	relative viability ([2]; first compound 2 µM)	relative viability ([3]; first compound 0.02 µM)	relative viability ([3]; first compound 0.2 µM)	relative viability ([3]; first compound 0.6325 µM)	relative viability ([3]; first compound 2 µM)	relative viability ([4]; first compound 0.02 µM)	relative viability ([4]; first compound 0.2 µM)	relative viability ([4]; first compound 0.6325 µM)	relative viability ([4]; first compound 2 µM)	relative viability ([1]; first compound 0.5 µM)
201T	0.462	0.338	0.454	0.247	0.759	0.597	0.442	0.373	0.376	0.347	0.294	0.256	1.18	0.509	0.211	0.176	–
A549	–	–	–	–	0.578	0.474	0.21	0.12	–	–	–	–	0.992	0.945	0.517	0.156	–
A-427	0.363	0.158	0.153	–	0.664	0.823	0.581	0.587	0.529	0.518	0.49	0.364	0.961	1.19	1.08	0.625	0.121
ABC-1	0.209	0.14	0.0972	0.0855	0.885	0.682	0.59	0.599	0.749	0.794	0.883	0.49	1.05	1.12	0.991	0.548	0.0778
BEN	0.386	0.287	0.275	0.247	0.557	0.597	0.536	0.555	0.443	0.433	0.472	0.449	0.63	0.609	0.548	0.587	0.193
CAL-12T	0.196	0.142	0.166	0.152	0.461	0.717	0.346	0.394	0.515	0.419	0.359	0.251	1.21	1.21	1.07	0.434	0.09
COR-L23	0.462	0.381	0.199	0.104	0.864	0.711	0.367	0.231	0.288	0.315	0.206	0.144	0.982	0.886	0.522	0.289	0.0775
COR-L 105	0.279	0.173	0.269	0.266	0.473	0.458	0.4	0.391	0.4	0.438	0.44	0.427	1.2	1.14	0.929	0.595	0.183
Calu-6	–	–	–	–	1.08	0.948	0.836	0.485	–	–	–	–	0.853	0.941	0.871	0.491	–
ChaGo-K-1	0.678	0.203	0.553	0.135	0.747	0.919	0.48	0.645	0.958	0.914	0.803	0.51	0.975	0.874	0.724	0.557	0.118
EBC-1	–	–	–	–	0.319	0.33	0.46	0.329	–	–	–	–	0.101	0.106	0.0923	0.108	–
EKVX	0.557	0.399	0.284	0.209	–	–	0.151	0.115	–	0.276	–	0.175	0.707	0.321	0.177	0.149	0.15
EMC-BAC-2	0.211	0.177	0.161	0.224	0.616	0.56	0.506	0.536	0.52	0.532	0.501	0.518	1.1	1.01	1.05	0.963	0.177
EPLC-272H	0.29	0.142	0.163	0.0783	0.337	0.294	0.199	0.221	0.319	0.36	0.3	0.343	0.665	0.446	0.296	0.163	0.0871
H3255	0.408	0.339	0.265	0.216	0.462	0.498	0.495	0.386	0.291	0.317	0.305	0.296	0.861	1.08	0.872	0.656	0.182
HARA	0.448	–	0.128	0.0628	0.562	0.518	0.321	0.373	0.305	0.261	0.267	0.286	0.884	0.855	0.875	0.713	0.0398
HCC-15	0.565	–	0.296	0.113	0.903	0.762	0.539	0.315	0.499	0.744	0.52	0.302	1.13	0.961	0.583	0.351	0.0919
HCC-44	0.358	0.131	0.212	0.174	0.784	0.58	0.46	0.33	0.971	0.929	0.823	0.619	–	–	–	–	0.136
HCC-78	0.361	0.37	0.308	0.336	0.236	0.182	0.181	–	0.467	0.529	0.496	0.451	0.548	0.527	0.459	0.325	0.296
HCC-366	0.952	–	0.463	0.0332	0.166	0.156	0.108	0.0793	0.404	0.332	0.154	0.0646	0.955	0.732	0.43	0.217	0.0243
HCC-827	0.875	0.672	0.476	0.383	0.749	1.03	0.656	0.478	0.46	0.455	0.231	0.255	0.879	0.95	0.602	0.429	0.211
HOP-62	0.554	0.225	0.125	0.112	0.711	0.879	0.705	0.569	0.409	0.573	0.404	0.439	1.14	1.12	1.22	0.95	0.0933

Cell Line	relative viability ([1]; first compound 0.005 µM)	relative viability ([1]; first compound 0.01581 µM)	relative viability ([1]; first compound 0.05 µM)	relative viability ([1]; first compound 0.1581 µM)	relative viability ([2]; first compound 0.02 µM)	relative viability ([2]; first compound 0.2 µM)	relative viability ([2]; first compound 0.6325 µM)	relative viability ([2]; first compound 2 µM)	relative viability ([3]; first compound 0.02 µM)	relative viability ([3]; first compound 0.2 µM)	relative viability ([3]; first compound 0.6325 µM)	relative viability ([3]; first compound 2 µM)	relative viability ([4]; first compound 0.02 µM)	relative viability ([4]; first compound 0.2 µM)	relative viability ([4]; first compound 0.6325 µM)	relative viability ([4]; first compound 2 µM)	relative viability ([1]; first compound 0.5 µM)
IA-LM	–	–	–	–	0.459	0.286	0.256	0.209	–	–	–	–	1.33	0.618	0.496	0.236	–
LC-2-ad	0.807	0.25	0.342	0.216	0.57	0.442	0.324	0.231	0.519	0.523	0.467	0.325	0.979	0.663	0.414	0.339	0.199
LCLC-97TM1	0.343	0.234	0.245	0.203	0.184	0.235	0.133	0.139	0.221	0.228	0.215	0.157	0.941	0.989	0.941	0.671	0.198
LCLC-103H	0.531	0.219	0.168	0.194	0.61	0.598	0.536	0.447	0.476	0.472	0.471	0.471	0.845	0.717	0.454	0.267	0.153
LK-2	0.256	0.158	0.244	0.151	0.635	0.575	0.374	0.452	0.568	0.618	0.155	0.257	1.6	1.02	1.13	0.568	0.111
LOU-NH91	0.767	0.571	0.487	0.344	0.512	0.47	0.388	0.34	0.545	0.536	0.541	0.399	0.966	0.995	0.731	0.315	0.213
LU99A	0.224	0.164	0.229	0.155	0.289	0.314	0.317	0.261	0.441	0.419	0.361	0.257	0.752	0.851	0.693	0.488	0.144
LXF-289	0.215	0.0608	0.116	0.0713	0.787	0.689	0.421	0.295	0.596	0.578	0.312	0.283	0.917	0.757	0.468	0.313	0.051
NCI-H23	0.518	–	0.248	0.16	0.565	0.53	0.374	0.251	0.527	0.551	0.325	0.245	1.08	0.825	0.52	0.431	0.0998
NCI-H322M	0.619	0.309	0.292	0.294	0.564	0.536	0.529	0.427	–	–	–	–	0.976	0.84	0.749	0.446	0.235
NCI-H358	0.809	0.157	0.0851	0.0615	0.337	0.354	0.337	0.294	0.157	0.146	0.15	0.177	0.71	0.918	0.657	0.308	0.0427
NCI-H441	0.368	0.188	0.175	0.176	0.453	0.442	0.35	0.243	0.238	0.264	0.178	0.249	1.01	0.887	0.558	0.361	0.137
NCI-H522	0.814	–	0.606	0.497	–	–	–	–	1	1.05	0.96	0.992	–	–	–	–	0.538
NCI-H596	0.798	0.285	0.439	0.179	0.47	0.375	0.365	0.365	–	–	–	–	0.76	0.794	0.572	0.488	0.135
NCI-H1299	–	–	–	–	0.953	0.634	0.474	0.248	–	–	–	–	1.14	1.12	1.08	0.908	–
NCI-H1563	0.65	0.573	0.562	0.523	0.662	0.601	0.647	0.671	–	–	–	–	0.927	0.909	0.862	0.761	0.488
NCI-H1623	0.517	0.542	0.547	0.441	–	–	–	–	–	–	–	–	0.567	0.35	0.306	0.259	0.304
NCI-H1648	0.245	0.199	0.207	0.293	–	–	–	–	0.297	0.267	0.281	0.241	–	–	–	–	0.314
NCI-H1703	–	–	–	–	0.283	0.25	0.275	0.24	–	–	–	–	0.341	0.383	0.341	0.348	–
NCI-H1792	–	0.635	0.347	0.282	0.337	0.243	0.113	0.0763	0.688	0.696	0.352	0.29	–	–	–	–	0.323
NCI-H2342	0.702	0.482	0.438	0.402	–	–	–	–	0.497	0.543	0.536	0.518	0.961	1	0.885	0.786	0.37
SW 900	0.334	0.182	0.204	0.108	–	–	–	–	0.481	0.473	0.497	0.416	0.629	0.799	0.729	0.569	0.0798
